Values quoted from earlier work as cited in patent publication US20060014804A1, “Cyanoguanidine prodrugs” (Leo Pharma A/S, priority 2002, published 2006).

Key:
[1] = tested on: human lung cancer tumour xenograft; settings: nude mice
[2] = tested on: human lung and breast cancer cell lines
[3] = tested on: human tumour cells; settings: nude mice transplanted with human tumour cells, also paclitaxel-resistant tumour cells
[4] = tested on: human tumour cells; settings: compared with daunorubicin and paclitaxel
[5] = tested on: normal human endothelial cells

Q: Which results are given for `N#CNC(=Nc1ccncc1)NCCCCCCOc1ccc(Cl)cc1` [N-(6-(4-chlorophenoxy)hexyl)-N′-cyano-N″-(4-pyridyl)guanidine]?
A: antitumour activity in the nude mouse model [1]: potent antitumour activity; antiproliferative activity in vitro [2]: high antiproliferative activity in vitro; antitumour activity in vivo [3]: substantial antitumour activity; potency in vitro [4]: comparable to that of the reference cytostatic agents daunorubicin and paclitaxel; antiproliferative activity on normal human endothelial cells [5]: considerably less antiproliferative activity
